The compounds below were run against Tetracycline efflux protein TetA(B) (Escherichia coli) (assay: Inhibition of [3H]tetracycline uptake into everted membrane vesicles, prepared from tetracycline resistant Escherichia coli D1-209).

SMILES | IC50 [µM]
CN(C)[C@@H]1C(=O)C(C(N)=O)C(=O)[C@@]2(O)C(=O)C3C(=O)c4c(O)cccc4[C@H](CSCc4ccc(Cl)cc4)C3[C@H](O)C12 (stereo not given in full) [6-(4-Chloro-benzylsulfanylmethyl)-4-dimethylamino-3,5,10,12,12a-pentahydroxy-1,11-dioxo-1,4,4a,5,5a,6,11,12a-octahydro-naphthacene-2-carboxylic acid amide] | 2.1
CN(C)[C@@H]1C(=O)C(C(N)=O)C(=O)[C@@]2(O)C(=O)C3C(=O)c4c(O)cccc4[C@H](CSCCC(=O)O)C3[C@H](O)C12 (stereo not given in full) [3-(9-Carbamoyl-7-dimethylamino-1,6,8,10a,11-pentahydroxy-10,12-dioxo-5,5a,6,6a,7,10,10a,12-octahydro-naphthacen-5-ylmethylsulfanyl)-propionic acid] | 43.2
CN(C)[C@@H]1C(=O)C(C(N)=O)C(=O)[C@@]2(O)C(=O)C3C(=O)c4c(O)cccc4[C@H](CS(=O)(=O)Cc4ccccc4)C3[C@H](O)C12 (stereo not given in full) [4-Dimethylamino-3,5,10,12,12a-pentahydroxy-1,11-dioxo-6-phenylmethanesulfonylmethyl-1,4,4a,5,5a,6,11,12a-octahydro-naphthacene-2-carboxylic acid amide] | 1.5
CSC[C@H]1c2cccc(O)c2C(=O)C2C(=O)[C@]3(O)C(=O)C(C(N)=O)C(=O)[C@@H](N(C)C)C3[C@@H](O)C21 (stereo not given in full) [4-Dimethylamino-3,5,10,12,12a-pentahydroxy-6-methylsulfanylmethyl-1,11-dioxo-1,4,4a,5,5a,6,11,12a-octahydro-naphthacene-2-carboxylic acid amide] | 7.9
CCCCSC[C@H]1c2cccc(O)c2C(=O)C2C(=O)[C@]3(O)C(=O)C(C(N)=O)C(=O)[C@@H](N(C)C)C3[C@@H](O)C21 (stereo not given in full) [6-Butylsulfanylmethyl-4-dimethylamino-3,5,10,12,12a-pentahydroxy-1,11-dioxo-1,4,4a,5,5a,6,11,12a-octahydro-naphthacene-2-carboxylic acid amide] | 0.8
CN(C)[C@@H]1C(=O)C(C(N)=O)C(=O)[C@@]2(O)C(=O)C3C(=O)c4c(O)cccc4[C@H](CSc4ccccc4)C3[C@H](O)C12 (stereo not given in full) [4-Dimethylamino-3,5,10,12,12a-pentahydroxy-1,11-dioxo-6-phenylsulfanylmethyl-1,4,4a,5,5a,6,11,12a-octahydro-naphthacene-2-carboxylic acid amide] | 6.9
COc1ccc(SC[C@H]2c3cccc(O)c3C(=O)C3C(=O)[C@]4(O)C(=O)C(C(N)=O)C(=O)[C@@H](N(C)C)C4[C@@H](O)C32)cc1 (stereo not given in full) [4-Dimethylamino-3,5,10,12,12a-pentahydroxy-6-(4-methoxy-phenylsulfanylmethyl)-1,11-dioxo-1,4,4a,5,5a,6,11,12a-octahydro-naphthacene-2-carboxylic acid amide] | 1.2
CN(C)[C@@H]1C(=O)C(C(N)=O)C(=O)[C@@]2(O)C(=O)C3C(=O)c4c(O)cccc4[C@H](CSc4ccc(Cl)cc4)C3[C@H](O)C12 (stereo not given in full) [6-(4-Chloro-phenylsulfanylmethyl)-4-dimethylamino-3,5,10,12,12a-pentahydroxy-1,11-dioxo-1,4,4a,5,5a,6,11,12a-octahydro-naphthacene-2-carboxylic acid amide] | 1.6
CN(C)[C@@H]1C(=O)C(C(=O)NCN2CCOCC2)C(=O)[C@@]2(O)C(=O)C3C(=O)c4c(O)cccc4[C@H](CSC4CCCC4)C3[C@H](O)C12 (stereo not given in full) [6-Cyclopentylsulfanylmethyl-4-dimethylamino-3,5,10,12,12a-pentahydroxy-1,11-dioxo-1,4,4a,5,5a,6,11,12a-octahydro-naphthacene-2-carboxylic acid (morpholin-4-ylmethyl)-amide] | 1
CN(C)[C@@H]1C(=O)C(C(N)=O)C(=O)[C@@]2(O)C(=O)C3C(=O)c4c(O)cccc4[C@H](CSC(C)(C)C)C3[C@H](O)C12 (stereo not given in full) [6-tert-Butylsulfanylmethyl-4-dimethylamino-3,5,10,12,12a-pentahydroxy-1,11-dioxo-1,4,4a,5,5a,6,11,12a-octahydro-naphthacene-2-carboxylic acid amide] | 0.5

From BindingDB's records for doi:10.1021/jm00055a008 (Tufts University, 1993)
